Data published in PubChem BioAssay (NCI).
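In this assay, cells in 96-well plates receive the compound at five concentrations for 48 hours. Endpoints are linearly interpolated between the surrounding concentrations. GI50 is the concentration that inhibits growth by half. The concentration for full growth arrest is given as TGI.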

Key:
Assay in all cases: NCI tumour cell line growth inhibition, 48 h
[1] = test system: NCI-H522 lung
[2] = test system: SW-620 colon
[3] = test system: UACC-257 melanoma
[4] = test system: 786-0 renal
[5] = test system: SK-MEL-2 melanoma
[6] = test system: NCI-H23 lung
[7] = test system: HOP-62 NSCLC
[8] = test system: M14 melanoma
[9] = test system: IGROV1 ovarian
[10] = test system: DU-145 prostate

| Structure (SMILES) | GI50 [1] | TGI [1] | GI50 [2] | TGI [2] | GI50 [3] | TGI [3] | GI50 [4] | TGI [4] | GI50 [5] | TGI [5] | GI50 [6] | TGI [6] | GI50 [7] | TGI [7] | GI50 [8] | TGI [8] | GI50 [9] | TGI [9] | GI50 [10] | TGI [10] |
| --- | --- | --- | --- | --- | --- | --- | --- | --- | --- | --- | --- | --- | --- | --- | --- | --- | --- | --- | --- | --- |
| N#C/C=C(\c1ccc([N+](=O)[O-])cc1)n1nnc2cc(Cl)c(Cl)cc21 | 1.72 µM | 3.57 µM | 1.75 µM | 4.15 µM | 2.06 µM | 4.53 µM | 2.09 µM | 3.58 µM | 2.56 µM | 6.42 µM | 2.28 µM | 6.68 µM | 1.99 µM | 5.04 µM | 1.86 µM | 4.5 µM | 1.82 µM | 4.08 µM | 1.65 µM | 3.3 µM |
| Cc1nc2cnc(N)c(C#Cc3cncc(C(=O)Nc4ccc(CN5CCN(C)CC5)c(C(F)(F)F)c4)c3)c2nc1C | 0.276 µM | 3.86 µM | 0.279 µM | 3.21 µM | 0.189 µM | 1.74 µM | 2.58 µM | 14.8 µM | 0.187 µM | 0.817 µM | 0.342 µM | 8.67 µM | 0.738 µM | 10.2 µM | 0.0903 µM | 0.339 µM | 0.266 µM | 1.21 µM | 0.409 µM | 11.2 µM |
| CC1(C)OCCn2c1nc1c(N3CCOCC3)nc(-c3cnc(N)nc3)nc12 | 0.415 µM | 40.8 µM | 0.399 µM | > 100 µM | 0.197 µM | 1.97 µM | 0.344 µM | 5.09 µM | 0.372 µM | 3.79 µM | 0.484 µM | > 100 µM | 0.477 µM | 6.56 µM | 0.316 µM | > 100 µM | 0.0622 µM | 0.432 µM | 0.354 µM | > 100 µM |
| Cc1nc2ccccc2nc1-c1ccc(N=[N+]([O-])c2ccc(-c3nc4ccccc4nc3C)cc2)cc1 |  | > 100 µM |  | > 100 µM |  | > 100 µM |  | > 100 µM |  | > 100 µM |  | > 100 µM |  | > 81.8 µM |  | > 100 µM |  | > 100 µM |  | > 100 µM |
| Nc1nc(N)c(N=Nc2ccc([As](=O)(O)O)cc2)c(=O)[nH]1 |  | > 100 µM |  | > 100 µM |  | > 100 µM |  | > 100 µM |  | > 100 µM |  | > 100 µM |  | > 100 µM |  | > 100 µM |  | > 100 µM |  | > 100 µM |
| Nc1nccc2c1ccn2-c1ccc(NC(=O)c2ccc(N3CCOCC3)c(C(F)(F)F)c2)cc1 | 1.12 µM | 6.71 µM | 1.06 µM | 4.14 µM | 2.15 µM | 8.61 µM | 0.207 µM | 0.529 µM | 1.11 µM | 5.49 µM | 0.94 µM | 17.3 µM | 0.342 µM | 1.73 µM | 0.622 µM | 2.54 µM | 1.56 µM | 30.4 µM | 2.66 µM | 20.5 µM |
| COC1C(O)=C2C(=O)O/C(C)=C/C=C/C=C/C=C\CC(c3ccccc3)NC(=O)\C=C/C=C\C=C\C=C\[C@@]2(C)[C@@H]1O (some centres not stated) |  | < 0.0285 µM |  | 0.139 µM |  | 0.165 µM |  | 0.148 µM |  | 0.15 µM |  |  |  | 0.146 µM |  | 0.35 µM |  | 0.287 µM |  | 0.178 µM |
| CCN1CCN=c2c3cc(OC)ccc3n3cnc4ccc1c2c43 |  | 0.207 µM |  | 2.08 µM |  | 2.05 µM |  | 0.394 µM |  | 0.808 µM |  | 0.985 µM |  | 0.924 µM |  | 1.04 µM |  | 7.62 µM |  | 2.73 µM |
| CCN(CC)c1nc(-c2ccc(Cl)cc2Cl)nc2ccccc12 | 29.2 µM | > 74.9 µM | 15.5 µM | 34.4 µM | 17.3 µM | 50.7 µM | 22.2 µM | 61.9 µM | > 41.8 µM | > 67.7 µM | 22.8 µM | 62.8 µM | 17.3 µM | 35.6 µM | 18 µM | 37.9 µM | 25.9 µM | > 100 µM | 13.6 µM | > 58.9 µM |
| CCCNC(=S)/N=C/c1c(O)c2ccccc2[nH]c1=O |  | > 100 µM |  | > 100 µM |  | > 100 µM |  | > 100 µM |  | > 100 µM |  | > 100 µM |  | > 100 µM |  | > 100 µM |  | > 100 µM |  | > 100 µM |
| Cc1[nH]c2ccccc2c1-c1cc(-c2cc(-c3c(C)[nH]c4ccccc34)on2)no1 |  | > 100 µM |  | > 100 µM |  | > 100 µM |  | > 100 µM |  | > 100 µM |  | > 100 µM |  | > 100 µM |  | > 100 µM |  | > 100 µM |  | > 100 µM |
| COc1ccccc1N1CCN(CCCn2c(=O)c3c(OC)nc(C)cc3c(=O)n2-c2ccccc2)CC1 | > 100 µM | > 100 µM | > 100 µM | > 100 µM |  |  | > 100 µM | > 100 µM | > 100 µM | > 100 µM | > 100 µM | > 100 µM | > 100 µM | > 100 µM | > 100 µM | > 100 µM | > 100 µM | > 100 µM | > 100 µM | > 100 µM |
